Data: patent US12617759B2, “Modifier of four-membered ring derivative, preparation method and application thereof” (Shanghai Hansoh Biomedical Co., Ltd., priority 2019, dated 2026)
Where two headings read alike, the source gives them in different places. Each block holds one compound with its values, some of them ahead of it.

What was measured:
[1] = target: T1, Human Dopamine D3 Receptor membrane (Homo sapiens, UniProt P35462); assay: Radioligand binding assay, dopamine D3 receptor ([3H]-methylspiperone)
T1 construct: purchased PerkinElmer ES-173-M400UA
T1 sequence (P35462 whole entry): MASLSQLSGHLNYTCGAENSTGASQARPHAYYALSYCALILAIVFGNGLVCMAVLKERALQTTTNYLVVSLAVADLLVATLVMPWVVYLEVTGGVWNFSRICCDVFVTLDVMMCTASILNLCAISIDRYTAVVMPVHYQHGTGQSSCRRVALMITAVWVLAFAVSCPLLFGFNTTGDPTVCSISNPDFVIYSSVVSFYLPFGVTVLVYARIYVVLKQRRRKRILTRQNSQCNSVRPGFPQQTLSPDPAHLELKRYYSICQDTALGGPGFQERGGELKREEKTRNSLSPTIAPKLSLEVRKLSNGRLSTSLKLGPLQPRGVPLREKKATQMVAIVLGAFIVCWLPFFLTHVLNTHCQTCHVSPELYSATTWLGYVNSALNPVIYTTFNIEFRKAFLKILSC
Procedure: The objective of this test example is to determine the affinity of the compounds for dopamine D3 receptor.
(§1) 0.5 to 5 μL of the test compounds (0.005 nM to 100 nM, 10 concentrations in total) and 100 μL of buffer were added to a 96-well assay plate. 0.5 μL of cell membrane and 300 μL of buffer were added to each well. [^3H]-methylspiperone was added to the buffer, and the plate was incubated at 27° C. for 30 min. The […]-96 GF/B filter plate pre-incubated with 0.5% PEI for 1 h was washed twice with the buffer (1 mL/well). The cell membrane suspension was added to the […]-96 GF/B filter plate, washed 4 times, and incubated at 55° C. for 10 min. 40 μL of ULTIMA GOLD was added to each well, and liquid scintillation counting was carried out.
(§2) The CPM (Counts per minute) values were determined by TopCount. […] The 10 concentrations of the compound were from 100 nM to 0.005 nM after 3-fold dilution of the reaction system. The percent inhibition rate and ten-point concentration data were fitted to the parametric nonlinear logistic equation by using GraphPad prism to calculate the IC50 values of the compound.

D3 receptor = target: T2, D3 receptor (Homo sapiens, UniProt P35462); assay: cAMP content in cells stably expressing D3 receptors (CHO-D3); assay type: cell-based; conditions: forskolin, agonistic activity
T2 construct: expressed in transfected cells; host or cells: CHO (CHO-D3, G418 selection)
T2 sequence (P35462 whole entry): as above
Procedure: To determine the activation effect of the compounds on D3 receptor.
3. Experimental Method: • 1. Preparation of the buffer: 1*HBSS+20 mM HEPES+0.1% BSA+500 μM IBMX. • Complete medium: Ham's F12K+10% fetal bovine serum+1*penicillin-streptomycin+400 µg/mL G418. • 2. CHO-D3 cells were cultured in the complete medium at 37° C., 5% C02. After TrypLE digestion, the cells were resuspended in the experimental buffer, and seeded into a 384-well cell culture plate at a seeding density of 8000 cells per well. • 3. The experimental buffer (1*HBSS, 0.1% BSA, 20 mM HEPES and 500 μM IBMX) was prepared. The compound was diluted with the buffer. 2.5 μL of the compound solution was added to each well, and the plate was incubated at 37° C. for 10 minutes. The forskolin was diluted to 8 μM (8*) with the experimental buffer. 2.5 μL of the diluted 8*forskolin was added, and the plate was incubated at 37° C. for 30 minutes. cAMP-d2 and Anti-cAMP-Eu^3+ were thawed, and diluted by 20-fold with the lysis buffer. 10 μL of cAMP-d2 was added to the experimental well, followed by the addition of 10 μL of Anti-cAMP-Eu^3+. The reaction plate was centrifuged at 200 g for 30 s at room temperature, and left to stand at 25° C. for 1 h. Data was collected using Envision. 4. […]

5-HT2A receptor [2] = target: T3, 5-HT2A receptor (Homo sapiens, UniProt P28223); assay: Radioligand binding assay, 5-HT2A receptor ([3H]-Ketanserin); set-up: purchased PerkinElmer; conditions: human 5-HT2A receptor membrane, read-out: 5HT-2A Binding IC50
T3 sequence (P28223 whole entry): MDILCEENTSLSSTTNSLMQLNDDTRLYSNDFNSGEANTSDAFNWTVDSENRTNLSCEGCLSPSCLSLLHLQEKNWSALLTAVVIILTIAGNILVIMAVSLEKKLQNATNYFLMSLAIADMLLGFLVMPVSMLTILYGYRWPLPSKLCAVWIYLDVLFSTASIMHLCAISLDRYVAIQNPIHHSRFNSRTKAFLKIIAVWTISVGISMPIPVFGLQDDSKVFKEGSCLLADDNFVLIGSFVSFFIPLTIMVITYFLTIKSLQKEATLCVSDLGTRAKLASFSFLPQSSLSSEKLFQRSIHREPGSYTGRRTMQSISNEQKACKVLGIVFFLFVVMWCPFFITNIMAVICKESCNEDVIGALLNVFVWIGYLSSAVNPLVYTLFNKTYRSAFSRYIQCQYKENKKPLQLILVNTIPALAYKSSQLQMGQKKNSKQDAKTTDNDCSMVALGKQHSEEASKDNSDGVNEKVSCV
Procedure: The objective of this test example is to determine the affinity of the compounds for 5-HT2A receptor.
as §1, with “[^3H]-Ketanserin” for “[^3H]-methylspiperone”
as §2

5-HT2A receptor [3] = target: T3, 5-HT2A receptor; assay: Calcium ion mobility in cells stably expressing 5-HT2A receptors (Flp-In-CHO-5HT2A, FLIPR); assay type: cell-based; set-up: expressed in transfected cells; conditions: Flp-In-CHO-5HT2A stable pool, inhibition of 5HT response
Procedure: To determine the inhibitory effect of the compounds on 5-HT2A receptor.
3. […] Probenecid and BSA were added fresh on the day of the experiment. […] 4. Experimental Data Processing Method:
The calcium signal values were determined by FLIPR. The calculated output for each sampling time point in the experiment was the ratio of the 340/510 nm wavelength signals to 380/510 nm wavelength signals. The maximum minus minimum calculation was derived from the ratio signal curve. The percent inhibition rate and ten-point concentration data were fitted to the parametric nonlinear logistic equation by using GraphPad prism to calculate the IC50 values of the compound.

[4] = Pharmacokinetic assay in Balb/c mice (plasma and brain tissue); assay type: in vivo; conditions: male, mouse, po, p.o. 5 mg/kg; for AUC(0-t): read-out: Area under curve AUC0-t; for Tmax: read-out: Peak time tmax; for Cmax: read-out: Plasma concentration Cmax
Procedure: Balb/c mice were used as test animals. The pharmacokinetic behavior in mouse body (plasma and brain tissue) of the compounds of Examples of the present invention orally administrated at a dose of 5 mg/kg was studied.
Male Balb/c mice (12 mice per group), purchased from Shanghai Jiesijie Laboratory Animal Co., LTD, with Certificate No.: SCXK (Shanghai) 2013-0006 N0.311620400001794.
The test compound was dissolved in 0.5% CMC-Na (1% Tween80) by sonication to formulate a clear solution or homogeneous suspension.
After an overnight fast, male Balb/c mice (12 mice per group) were administered p.o. with the test compound at an administration dose of 5 mg/kg and an administration volume of 10 mL/kg.
0.2 mL of blood was taken from the heart of the mouse before administration and at 1, 2, 4, 8 and 24 hours after administration, and the mice were sacrificed with CO2. The samples were stored in EDTA-K2 tubes, and centrifuged for 6 minutes at 4° C., 6000 rpm to separate the plasma. The plasma samples were stored at −80° C. Whole brain tissue was taken out, weighed, placed in a 2 mL centrifuge tube, and stored at −80° C.
• 1) 160 μL of acetonitrile was added to 40 μL of the plasma sample for precipitation, and then the mixture was centrifuged for 5 to 20 minutes at 3500×g. • 2) 90 μL of acetonitrile containing internal standard (100 ng/mL) was added to 30 µL of the plasma and brain homogenate sample for precipitation, and then the mixture was centrifuged for 8 minutes at 13000 rpm. • 3) 70 μL of water was added to 70 μL of the treated supernatant and mixed by vortex for 10 minutes. 20 μL of the supernatant was taken to analyze the concentration of the test compound by LC/MS/MS. LC/MS/MS analytical instrument: AB Sciex API 4000 Qtrap. 2.7 Liquid Chromatography Analysis: • Liquid chromatography condition: Shimadzu LC-20AD pump • Chromatographic column: Agilent ZORBAX XDB-C18 (50×2.1 mm, 3.5 m); Mobile phase: Eluent A was 0.1% formic acid in water, and Eluent B was acetonitrile • Flow rate: 0.4 mL/min • Elution time: 0-4.0 minutes, the eluent is as follows:
The main parameters of pharmacokinetics were calculated by WinNonlin 6.1.

[5] = Stability in human liver microsome in vitro; assay type: in vitro ADME
Procedure: (§3) To evaluate the metabolic stability of the compounds of the present invention in liver microsome in vitro.
(§4) Formulation of the working solution of the compound: 2 μL of the stock solution of the compound was added to 998 μL of phosphate buffer, and the final concentration was 20 μM.
(§5) 78.1 μL of 20 mg/mL microsome was diluted to 2.5 mL with 100 mM phosphate buffer and mixed well, and the final concentration was 0.625 mg/mL.
(§6) 33.3 mg of NADPH and 25.8 mg of UDPGA were weighed respectively, followed by the addition of 2 mL of 100 mM phosphate buffer. The final concentrations were 20 mM.
(§7) 1 mg of Alamethicin was weighed, to which 200 μL of DMSO was added to obtain a 5 mg/mL solution. 10 μL of this solution was added to 990 μL of phosphate buffer (pH 7.4), and the final concentration was 50 μg/mL.
(§8) 400 μL of the formulated liver microsome, 25 μL of the working solution of the compound (10 μM) and 25 μL of Alamethicin (50 μg/mL) were added to a 96-well plate successively, which was then pre-incubated at 37° C. for 10 min. 50 μL of the formulated NADPH/UDPGA was added to initiate the reaction, and the plate was incubated at 37° C. The total volume of the reaction system was 500 μL. The final contents of the components are as follows:
(§9) […] The resulting sample was centrifuged at 4000 g for 10 min, and the supernatant was collected for LC-MS/MS analysis.

[6] = Stability in rat liver microsome in vitro; assay type: in vitro ADME, SD rat
Procedure: as §3, §4, §5, §6, §7, §8, §9

[7] = Stability in dog liver microsome in vitro; assay type: in vitro ADME
Procedure: as §3, §4, §5, §6, §7, §8, §9

rats = assay: Pharmacodynamic model of active escape experiment in rats; assay type: in vivo; conditions: F344 rats, oral dose 1 mg/kg one hour before test; vehicle 91-98%
Procedure: To evaluate the anti-schizophrenic effect of the compounds using the pharmacodynamic model of the active escape experiment in rats.
A prescription amount of the compound was weighed, followed by the addition of a prescription volume of 0.5% CMC-Na+1% Tween 80 solution. The compound solution was formulated before the administration, stored at 2 to 8° C., and used within 4 days.
5.2 Baseline Test and Grouping
The day before the compound screening test, a baseline test was performed. The test process was the same as 5.1.1 to 5.1.3, and the number of the baseline test was 20. The animals whose number of avoids reached 16 (80%) were grouped according to the number of avoids, 10 animals per group. The first group was administered with the vehicle orally, and the other groups were administered with the corresponding test compounds according to the experimental design.
The compound was administered orally (5 mL/kg) one hour before the test; The test process was the same as 5.1.1 to 5.1.4, and the number of the test was 20.
The following data was collected by the software for data analysis: • Number of avoids of the animal; • Number of escape failures of the animal; • Escape latency of the animal; • All measurement data were expressed as mean±standard error (Mean±SEM), and analyzed by Graphpad 6 statistical software. The difference was considered to be significant when p<0.05. 7.

IC50 [1]: 0.34 nM
EC50 (D3 receptor): 0.9 nM
IC50 (5-HT2A receptor [2]): 1.35 nM
IC50 (5-HT2A receptor [3]): 4.37 nM
Compound: Cc1cc(C(=O)N[C@H]2C[C@H](CCN3CCN(c4cccc(Cl)c4Cl)CC3)C2)on1 [Example 22A]

IC50 [1]: 0.33 nM
EC50 (D3 receptor): 1.7 nM
IC50 (5-HT2A receptor [2]): 1.8 nM
IC50 (5-HT2A receptor [3]): 4.28 nM
Compound: Cc1ncc(C(=O)N[C@H]2C[C@H](CCN3CCN(c4cccc(Cl)c4Cl)CC3)C2)o1 [Example 24A]

IC50 [1]: 0.95 nM
EC50 (D3 receptor): 0.4 nM
IC50 (5-HT2A receptor [2]): 41.5 nM
IC50 (5-HT2A receptor [3]): 39 nM
Compound: CC(C)(O)C(=O)N[C@H]1C[C@H](CCN2CCN(c3cccc(Cl)c3Cl)CC2)C1 [Example 11A]

AUC(0-t) ([4]; Brain): 11900 ng·h/mL
Tmax ([4]; Brain): 1 h
Cmax ([4]; Brain): 1540 ng/mL
AUC(0-t) ([4]; Plasma): 3050 ng·h/mL
AUC(0-inf) ([4]; Plasma, read-out: Area under curve AUC0-∞): 12900 ng·h/mL
MRT ([4]; Plasma, read-out: Average residence time MRT): 6.2 h
half-life ([4]; Plasma, read-out: Half life t1/2 (converted)): 5.6 h
Tmax ([4]; Plasma): 0.5 h
Cmax ([4]; Plasma): 362 ng/mL
Remaining (%, 120 min) ([5]; 120 min): 38.8%
half-life at 1 μM ([5]; human liver microsomes, pH 7.4, 1 μM compound, NADPH/UDPGA, read-out: Half life (t1/2)): 1.5 h
microsomal CLint at 1 μM ([5]; human liver microsomes, pH 7.4, 1 μM compound, NADPH/UDPGA, read-out: Intrinsic clearance rate (CLint)): 15.4 µL/min/mg
Remaining (%, 120 min) ([6]; 120 min): 27.0%
half-life at 1 μM ([6]; SD, rat liver microsomes, pH 7.4, 1 μM compound, NADPH/UDPGA, read-out: Half life (t1/2)): 1.01 h
microsomal CLint at 1 μM ([6]; SD, rat liver microsomes, pH 7.4, 1 μM compound, NADPH/UDPGA, read-out: Intrinsic clearance rate (CLint)): 22.9 µL/min/mg
Remaining (%, 120 min) ([7]; 120 min): 30.2%
half-life at 1 μM ([7]; dog liver microsomes, pH 7.4, 1 μM compound, NADPH/UDPGA, read-out: Half life (t1/2)): 1.16 h
microsomal CLint at 1 μM ([7]; dog liver microsomes, pH 7.4, 1 μM compound, NADPH/UDPGA, read-out: Intrinsic clearance rate (CLint)): 19.9 µL/min/mg
Compound: O=C(N[C@H]1C[C@H](CCN2CCN(c3cccc(Cl)c3Cl)CC2)C1)c1ccon1 [Example 25A, N-(Trans-3-(2-(4-(2,3-dichlorophenyl)piperazin-1-yl)ethyl)cyclobutyl)isoxazole-3-carboxamide]
CAR value (rats): 18%
